Literature values, collected in patent publication US20160208299A1, “PRODUCTION OF ISOQUINOLINE ALKALOIDS AND FLAVONOIDS IN PLANT CELL CULTURES OF GOLDENSEAL (HYDRASTIS CANADENSIS)” (DIANAPLANTSCIENCES INC., priority 2015, published 2016).

Assays:
E. coli = conditions: cells lining the walls of the urinary tract

COc1ccc2cc3[n+](cc2c1OC)CCc1cc2c(cc1-3)OCO2 [berberine]
effective: effectiveness against parasite (Giardia lamblia) | effectiveness in treating infection by blocking the adhesion of E. coli (E. coli) | effectiveness against parasite (Entamoeba histolytica) | effectiveness against parasite (Trichomonas vaginalis)
